Test results as given in patent US9855268B2, “Triazolo[4,5-d]pyrimidine derivatives” (Merck Patent GmbH, priority 2013, dated 2018).

Legend:
Format in all cases: biochemical
[1] = molecular target: GSK3β(h) (Homo sapiens, UniProt P49841); assay: GSK3β radiometric kinase assay (33P-ATP, phospho GS2 peptide); details: read-out: IC50 GSK3β (enzyme assay)
Protocol: GSK3β(h) is incubated with 8 mM MOPS pH 7,0, 0,2 mM EDTA, 20 μM
[…](p)EDEEE (phosphor GS2 peptide), 10 mM Mg-acetate and [gamma-33P-ATP](specific activity approx. 500 cpm/Pmol, concentration as required). The reaction is initiated by the addition of the MgATP. After incubation for 40 minutes at the room temperature, the Reaction is stopped by the addition of 3% phosphoric acid solution. 10 μL of reaction is then spotted onto a P30 filtermat and washed three times for 5 minutes in 50 mM phosphoric acid and once in methanol prior to drying and scintillation counting.

[2] = molecular target: GSK3α(h) (Homo sapiens, UniProt P49840); assay: GSK3α radiometric kinase assay (33P-ATP, phospho GS2 peptide); details: read-out: IC50 GSK3α (enzyme assay)
Sequence of GSK3α(h) (P49840 whole entry): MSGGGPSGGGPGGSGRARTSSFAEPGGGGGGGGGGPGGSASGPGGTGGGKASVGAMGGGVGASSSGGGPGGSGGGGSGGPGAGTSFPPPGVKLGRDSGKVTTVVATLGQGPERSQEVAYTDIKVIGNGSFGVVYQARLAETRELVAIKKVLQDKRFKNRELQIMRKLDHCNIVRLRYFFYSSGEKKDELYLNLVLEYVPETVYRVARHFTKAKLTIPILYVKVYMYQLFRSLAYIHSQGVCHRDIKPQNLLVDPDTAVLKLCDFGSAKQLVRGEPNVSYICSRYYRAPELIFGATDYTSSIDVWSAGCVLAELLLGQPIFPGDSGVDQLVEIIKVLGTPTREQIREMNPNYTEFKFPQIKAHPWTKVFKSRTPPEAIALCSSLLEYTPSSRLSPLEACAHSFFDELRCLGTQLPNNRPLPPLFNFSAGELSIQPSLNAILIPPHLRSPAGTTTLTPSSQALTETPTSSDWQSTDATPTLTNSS
Procedure, shortened: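 Human GSK3α incubated with 20 μM phospho-GS2 peptide in 8 mM MOPS pH 7,0, 10 mM Mg-acetate and [γ-33P]ATP (concentration as required), started with MgATP. After 40 minutes at room temperature, stopped with phosphoric acid; 33P incorporation measured by filtermat spotting and scintillation counting.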

[3] = molecular target: GCN2 (Homo sapiens, UniProt Q9P2K8); assay: GCN2 enzyme assay (TR-FRET Lanthascreen, GFP-eIF2alpha phosphorylation); details: 10 μM ATP, 80 nM GFP-eIF2a, 30 nM GCN2
Sequence of GCN2 (Q9P2K8 whole entry, species assumed): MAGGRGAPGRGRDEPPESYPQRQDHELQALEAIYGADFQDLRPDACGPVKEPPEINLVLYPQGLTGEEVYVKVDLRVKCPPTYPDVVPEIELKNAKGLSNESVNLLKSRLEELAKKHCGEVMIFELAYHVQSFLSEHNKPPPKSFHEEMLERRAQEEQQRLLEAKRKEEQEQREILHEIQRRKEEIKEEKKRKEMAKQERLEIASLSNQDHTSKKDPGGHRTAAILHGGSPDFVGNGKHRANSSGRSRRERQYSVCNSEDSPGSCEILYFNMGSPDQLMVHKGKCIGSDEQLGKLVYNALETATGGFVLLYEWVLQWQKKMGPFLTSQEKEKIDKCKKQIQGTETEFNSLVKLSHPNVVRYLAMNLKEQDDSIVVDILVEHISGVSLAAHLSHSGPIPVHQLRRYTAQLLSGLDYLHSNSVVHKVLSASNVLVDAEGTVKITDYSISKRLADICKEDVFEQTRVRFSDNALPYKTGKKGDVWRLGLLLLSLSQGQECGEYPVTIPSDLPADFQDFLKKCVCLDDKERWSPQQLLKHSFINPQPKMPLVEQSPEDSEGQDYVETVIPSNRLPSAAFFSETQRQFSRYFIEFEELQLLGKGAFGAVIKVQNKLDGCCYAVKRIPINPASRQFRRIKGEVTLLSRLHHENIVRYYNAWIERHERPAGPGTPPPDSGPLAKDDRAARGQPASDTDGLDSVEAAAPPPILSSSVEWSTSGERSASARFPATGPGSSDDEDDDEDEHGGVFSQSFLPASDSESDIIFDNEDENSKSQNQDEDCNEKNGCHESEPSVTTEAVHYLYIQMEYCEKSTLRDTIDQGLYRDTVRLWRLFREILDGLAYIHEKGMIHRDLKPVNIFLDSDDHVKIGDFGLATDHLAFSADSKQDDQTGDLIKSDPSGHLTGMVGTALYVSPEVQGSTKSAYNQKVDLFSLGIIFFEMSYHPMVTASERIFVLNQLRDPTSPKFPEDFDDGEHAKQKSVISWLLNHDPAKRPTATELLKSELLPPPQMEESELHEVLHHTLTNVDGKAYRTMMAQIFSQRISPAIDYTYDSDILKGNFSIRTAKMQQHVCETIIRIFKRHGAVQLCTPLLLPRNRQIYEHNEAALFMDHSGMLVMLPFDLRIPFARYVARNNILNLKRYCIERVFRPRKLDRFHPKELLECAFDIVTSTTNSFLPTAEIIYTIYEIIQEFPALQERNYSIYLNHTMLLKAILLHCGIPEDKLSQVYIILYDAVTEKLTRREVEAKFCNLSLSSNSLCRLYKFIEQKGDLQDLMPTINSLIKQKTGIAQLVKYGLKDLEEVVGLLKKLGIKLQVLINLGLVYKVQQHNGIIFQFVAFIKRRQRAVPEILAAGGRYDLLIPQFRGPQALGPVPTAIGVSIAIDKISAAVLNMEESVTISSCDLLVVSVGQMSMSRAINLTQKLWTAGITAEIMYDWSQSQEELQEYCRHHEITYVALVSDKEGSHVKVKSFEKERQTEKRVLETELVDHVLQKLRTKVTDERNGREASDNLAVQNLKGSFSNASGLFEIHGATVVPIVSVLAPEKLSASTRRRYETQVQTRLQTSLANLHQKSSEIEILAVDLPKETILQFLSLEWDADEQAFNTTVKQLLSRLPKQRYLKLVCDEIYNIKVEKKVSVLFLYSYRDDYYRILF
Procedure, shortened: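 Phosphorylation of GFP-eIF2alpha (80 nM) by GCN2 run at room temperature with 10 μM ATP. After EDTA quench, product quantified by Lanthascreen TR-FRET (antibody–GFP complex, 340 nm excitation).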

Sequence of GSK3β(h) (P49841 whole entry): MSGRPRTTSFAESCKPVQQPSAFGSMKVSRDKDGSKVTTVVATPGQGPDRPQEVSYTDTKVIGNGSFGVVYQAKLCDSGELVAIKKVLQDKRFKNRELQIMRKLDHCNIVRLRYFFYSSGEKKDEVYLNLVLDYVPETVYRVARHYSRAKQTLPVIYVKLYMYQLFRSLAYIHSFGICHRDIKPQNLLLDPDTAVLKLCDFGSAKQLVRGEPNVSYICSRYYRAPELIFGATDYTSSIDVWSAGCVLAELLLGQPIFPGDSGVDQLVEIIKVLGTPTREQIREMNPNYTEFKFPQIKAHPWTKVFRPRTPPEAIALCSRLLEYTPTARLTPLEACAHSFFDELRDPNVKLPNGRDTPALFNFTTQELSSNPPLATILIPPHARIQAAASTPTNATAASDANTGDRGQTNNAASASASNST

IC50 [1]	IC50 [2]	IC50 [3]	Structure (SMILES)
< 1000 nM	< 1000 nM	< 1000 nM	Cc1ncc2cc(-n3nnc4cnc(N[C@@H]5CC[C@@H](O)C5)nc43)ccc2n1 (relative stereo) [A209, (trans)-3-[3-(2-methyl-quinazolin-6-yl)-3H-[1,2,3]triazolo[4,5-d]pyrimidin-5-ylamino]-cyclopentanol]
< 1000 nM	< 1000 nM	< 1000 nM	COc1ccc(-n2nnc3cnc(N[C@H]4C[C@H](C(N)=O)C4)nc32)cc1 [A145, (trans)-3-[3-(4-methoxy-phenyl)-3H-[1,2,3]triazolo[4,5-d]pyrimidin-5-ylamino]-cyclobutanecarboxylic acid amide]
1000 to 5000 nM	< 1000 nM	< 1000 nM	COc1ccc(-n2nnc3cnc(N[C@@H]4CCC[C@@H](C(N)=O)C4)nc32)cc1 (relative stereo) [A148, (trans)-3-[3-(4-methoxy-phenyl)-3H-[1,2,3]triazolo[4,5-d]pyrimidin-5-ylamino]-cyclohexanecarboxylic acid amide]
< 1000 nM	< 1000 nM	< 1000 nM	N#CCCn1cc(-c2ccc(-n3nnc4cnc(N[C@@H]5CC[C@@H](C(N)=O)C5)nc43)cc2)cn1 [A217, (1R,3R)-3-(3-{4-[1-(2-cyano-ethyl)-1H-pyrazol-4-yl]-phenyl}-3H-[1,2,3]triazolo[4,5-d]pyrimidin-5-ylamino)-cyclopentanecarboxylic acid amide]
< 1000 nM	< 1000 nM	< 1000 nM	NC(=O)[C@@H]1CC[C@@H](Nc2ncc3nnn(-c4ccc(-c5cnn(CCn6ncccc6=O)c5)cc4)c3n2)C1 [A237, (1R,3R)-3-[3-(4-{1-[2-(6-oxo-6H-pyridazin-1-yl)-ethyl]-1H-pyrazol-4-yl}-phenyl)-3H-[1,2,3]triazolo[4,5-d]pyrimidin-5-ylamino]-cyclopentanecarboxylic acid amide]
1000 to 5000 nM	< 1000 nM	< 1000 nM	Cc1ccc2cc(-n3nnc4cnc(N[C@@H]5CCN(C(=O)CCN6CCN(C)CC6)C5)nc43)ccc2n1 [A134, 3-(4-methyl-piperazin-1-yl)-1-{(R)-3-[3-(2-methyl-quinolin-6-yl)-3H-[1,2,3]triazolo[4,5-d]pyrimidin-5-ylamino]-pyrrolidin-1-yl}-propan-1-one]
1000 to 5000 nM	< 1000 nM	< 1000 nM	COc1ccc(-n2nnc3cnc(N[C@@H]4CCN(C(N)=O)C4)nc32)cc1 [A285, (R)-3-[3-(4-Methoxy-phenyl)-3H-[1,2,3]triazolo[4,5-d]pyrimidin-5-ylamino]-pyrrolidine-1-carboxylic acid amide]
< 1000 nM	< 1000 nM	< 1000 nM	CC(C)(O)Cn1cc(-c2ccc(-n3nnc4cnc(N[C@@H]5CC[C@@H](C(N)=O)C5)nc43)cc2)cn1 [A233, (1R,3R)-3-(3-{4-[1-(2-hydroxy-2-methyl-propyl)-1H-pyrazol-4-yl]-phenyl}-3H-[1,2,3]triazolo[4,5-d]pyrimidin-5-ylamino)-cyclopentanecarboxylic acid amide]
1000 to 5000 nM	< 1000 nM	< 1000 nM	CN1CCN(CCC(=O)N2CC[C@@H](Nc3ncc4nnn(-c5ccc6ncccc6c5)c4n3)C2)CC1 [A133, 3-(4-methyl-piperazin-1-yl)-1-[(R)-3-(3-quinolin-6-yl-3H-[1,2,3]triazolo[4,5-d]pyrimidin-5-ylamino)-pyrrolidin-1-yl]-propan-1-one]
< 1000 nM	< 1000 nM	< 1000 nM	CS(=O)(=O)N1CC[C@@H](Nc2ncc3nnn(-c4ccc5ncccc5c4)c3n2)C1 [A269, ((R)-1-methanesulfonyl-pyrrolidin-3-yl)-(3-quinolin-6-yl-3H-[1,2,3]triazolo[4,5-d]pyrimidin-5-yl)-amine]
< 1000 nM	< 1000 nM	< 1000 nM	NC(=O)[C@@H]1CC[C@@H](Nc2ncc3nnn(-c4ccc(OCC5CCNCC5)cc4)c3n2)C1 [A279, (1R,3R)-3-{3-[4-(piperidin-4-ylmethoxy)-phenyl]-3H-[1,2,3]triazolo[4,5-d]pyrimidin-5-ylamino}-cyclopentanecarboxylic acid amide]
< 1000 nM	< 1000 nM	< 1000 nM	COc1ccc2cc(-n3nnc4cnc(N[C@@H]5CC[C@@H](C(N)=O)C5)nc43)ccc2n1 [A181, (1R,3R)-3-[3-(2-methoxy-quinolin-6-yl)-3H-[1,2,3]triazolo[4,5-d]pyrimidin-5-ylamino]-cyclopentanecarboxylic acid amide]
< 1000 nM	< 1000 nM	1000 to 5000 nM	COCCn1cc(-c2ccc(-n3nnc4cnc(N[C@@H]5CC[C@@H](C(N)=O)C5)nc43)nc2)cn1 [A219, (1R,3R)-3-(3-{5-[1-(2-methoxy-ethyl)-1H-pyrazol-4-yl]-pyridin-2-yl}-3H-[1,2,3]triazolo[4,5-d]pyrimidin-5-ylamino)-cyclopentanecarboxylic acid amide]
< 1000 nM	< 1000 nM	< 1000 nM	COc1ccc(-n2nnc3cnc(N[C@@H]4CC[C@H](C(N)=O)C4)nc32)cc1 [A136, (1S,3R)-3-[3-(4-methoxy-phenyl)-3H-[1,2,3]triazolo[4,5-d]pyrimidin-5-ylamino]-cyclopentanecarboxylic acid amide]
< 1000 nM	< 1000 nM	< 1000 nM	COCCn1cc(-n2nnc3cnc(N[C@@H]4CC[C@@H](C(N)=O)C4)nc32)cn1 [A159, (1R,3R)-3-{3-[1-(2-methoxy-ethyl)-1H-pyrazol-4-yl]-3H-[1,2,3]triazolo[4,5-d]-pyrimidin-5-ylamino}-cyclopentanecarboxylic acid amide]
< 1000 nM	< 1000 nM	< 1000 nM	COc1ccc(-n2nnc3cnc(N[C@H]4CC[C@H](C(N)=O)C4)nc32)cc1 [A137, (1S,3S)-3-[3-(4-methoxy-phenyl)-3H-[1,2,3]triazolo[4,5-d]pyrimidin-5-ylamino]-cyclopentanecarboxylic acid amide]
< 1000 nM	< 1000 nM	< 1000 nM	Cc1nc2cc(-n3nnc4cnc(N[C@@H]5CC[C@@H](C(N)=O)C5)nc43)ccc2n1C [A183, (1R,3R)-3-[3-(1,2-dimethyl-1H-benzimidazol-5-yl)-3H-[1,2,3]triazolo[4,5-d]-pyrimidin-5-ylamino]-cyclopentanecarboxylic acid amide]
< 1000 nM	< 1000 nM	< 1000 nM	NC(=O)[C@@H]1CC[C@@H](Nc2ncc3nnn(-c4ccc(OCCn5cccn5)cc4)c3n2)C1 [A160, (1R,3R)-3-{3-[4-(2-pyrazol-1-yl-ethoxy)-phenyl]-3H-[1,2,3]triazolo[4,5-d]-pyrimidin-5-ylamino}-cyclopentanecarboxylic acid amide]
< 1000 nM	< 1000 nM	< 1000 nM	CCOc1ccc(-n2nnc3cnc(N[C@@H]4CC[C@@H](c5nnc(C)o5)C4)nc32)cc1 [A281, [3-(4-ethoxy-phenyl)-3H-[1,2,3]triazolo[4,5-d]pyrimidin-5-yl]-[(1R,3R)-3-(5-methyl-[1,3,4]oxadiazol-2-yl)-cyclopentyl]-amine]
1000 to 5000 nM	< 1000 nM	< 1000 nM	CCOc1ccc(-n2nnc3cnc(N[C@@H]4CC[C@@H](c5nnc(N)o5)C4)nc32)cc1 [A283, [(1R,3R)-3-(5-amino-[1,3,4]oxadiazol-2-yl)-cyclopentyl]-[3-(4-ethoxy-phenyl)-3H-[1,2,3]triazolo[4,5-d]pyrimidin-5-yl]-amine]
< 1000 nM	< 1000 nM	< 1000 nM	CC(C)(O)c1ccc(-n2nnc3cnc(N[C@@H]4CC[C@@H](C(N)=O)C4)nc32)cc1 [A289, (1R,3R)-3-{3-[4-(1-hydroxy-1-methyl-ethyl)-phenyl]-3H-[1,2,3]triazolo[4,5-d]pyrimidin-5-ylamino}-cyclopentanecarboxylic acid amide]
< 1000 nM	< 1000 nM	< 1000 nM	COc1ccc(-n2nnc3cnc(N[C@H]4CC[C@H](S(N)(=O)=O)C4)nc32)cc1 (relative stereo) [A288, (trans)-3-[3-(4-methoxy-phenyl)-3H-[1,2,3]triazolo[4,5-d]pyrimidin-5-ylamino]-cyclopentanesulfonic acid amide]
1000 to 5000 nM	< 1000 nM	< 1000 nM	N[C@H]1CC[C@@H](Nc2ncc3nnn(-c4ccc5ncccc5c4)c3n2)C1 [A119, (1S,3R)-N3-(3-quinolin-6-yl-3H-[1,2,3]triazolo[4,5-d]pyrimidin-5-yl)-cyclopentane-1,3-diamine]
< 1000 nM	< 1000 nM	< 1000 nM	NC(=O)[C@@H]1CC[C@@H](Nc2ncc3nnn(-c4ccc(I)cn4)c3n2)C1 [A177, (1R,3R)-3-[3-(5-iodo-pyridin-2-yl)-3H-[1,2,3]triazolo[4,5-d]pyrimidin-5-ylamino]-cyclopentanecarboxylic acid amide]
